In patent US8816102B2, “Compounds” (Givaudan S.A., priority 2009, dated 2014):

Key:
Design in all cases: species or system human
[1] = Sensory panel tasting of 0.3% NaCl solution with and without compound; conditions: 0.3% NaCl and 10 ppm compound; reference solution A (0.3% NaCl): salty; trained panel of 20 women
Protocol: (§1) Two solutions were prepared:
A a solution of 0.3% NaCl
B a solution of 0.3% NaCl and 10 ppm Example 1 compound
(§2) The samples were tasted by a trained sensory panel composed of 20 women aged between 30 and 60.
B a solution of 0.3% NaCl and 10 ppm Example 5 compound.

[2] = Use in tomato soup, tasted by flavourists; conditions: tomato soup containing 10 ppm compound; 4 flavourists
Protocol: A tomato soup mix was prepared from 9.4 g of sodium chloride, 1 g of mono sodium glutamate, 0.08 g ribonucleotides (ex yeast), 32 g of tomato powder (ex Spreda), 25.1 g of glucose, 21 g of starch (Ultrasperse 5 ex National Starch), 5 g of palm fat powder, 3 g of yeast powder, 1 g on onion powder, 0.15 g of carrot powder, 0.05 g of ground white pepper, 0.3 g celery extract powder, 0.05 g of ground laurel leaf powder, and 1.85 g of sucrose. 25 G of the well mixed ingredients was added to 250 g of boiling water and stirred until completely dissolved.
The reference soup was compared with a batch of the same soup containing 10 ppm of N-(2-hydroxyethyl)-2-(benzo[1,3]dioxol-5-yl)-2-oxoacetamide as prepared in example 2.

[3] = Use in potato chips, tasted by trained sensory panel
Protocol: Plain potato chips were prepared.
One part was flavoured with 1.2% sodium chloride (sample A)
One part was flavoured with 1.2% sodium chloride and 0.3% MSG (sample b)
One part was flavoured with 1.2% sodium chloride and 2.5 ppm N-(4-heptyl)-2-(benzo[1,3]dioxol-5-yl)-2-oxo-acetamide as prepared in example 3 (sample C).
as §2

[4] = Use in tomato ketchup, tasted by flavourists; conditions: 4 flavourists
Protocol: A tomato ketchup was prepared from 19% tomato paste (28-30% dry weight), 8% of vinegar (15%), 3% of sodium chloride, 20% of sugar and 50% of water.
To one half of the batch was added 2 ppm of N-(4-heptyl) 2-(4-hydroxy-3-methyxophenol)-2-oxoacetamide (Example 5)
A batch of tomato ketchup was prepared as described in Example 12. To one half of the batch was added 20 ppm N-(4-hepthyl) 4-hydroxy-3-methoxy-mandelic amide as prepared in Example 7.

[5] = Sensory panel tasting of 0.3% NaCl and 0.03% MSG solution with and without compound; conditions: 0.3% NaCl, reference solution A: salty, umami, trained panel of 20 women
Protocol: as §1
A a solution of 0.3% NaCl and 0.03% MSG
B a solution of 0.3% NaCl and 0.03% MSG and 10 ppm Example 6 compound.
as §2
A a solution of 0.3% NaCl, 0.03% MSG
B a solution of 0.3% NaCl, 0.03% MSG and 10 ppm N-heptyl-2-oxo-3-phenylpropionamide as prepared in example 9.
B a solution of 0.3% NaCl, 0.03% MSG and 1 ppm N-(4-heptyl)-2-oxo-3-phenylpropionamide as prepared in example 10.
B a solution of 0.3% NaCl, 0.03% MSG and 1 ppm N-heptyl 3-methoxy-4-hydroxy-mandelic acid as prepared in Example 8.

For `O=C(NCCO)C(=O)c1ccccc1` [Example 1, N-(2-hydroxyethyl)-2-oxo-2-phenylacetamide], the “taste description of solution B” value [1] was “more salty, salivating”.

In the case of `O=C(NCCO)C(=O)c1ccc2c(c1)OCO2` [Example 2, 2-(benzo[d][1.3]dioxol-5-yl)-N-(2-hydroxyethyl)-2-oxoacetamide], the “taste of test soup compared with base soup” value [2] is reported as “more umami, was more lingering and was more complex”.

With `CCCC(CCC)NC(=O)C(=O)c1ccc2c(c1)OCO2` [Example 3, 2-(benzo[d][1,3]dioxol-5-yl)-N-(heptan-4-yl)-2-oxoacetamide] the “taste description of potato chips sample C” value ([3]; 1.2% sodium chloride and 2.5 ppm compound, sample A (1.2% sodium chloride): salty) was “salty, umami, long lasting, savoury, bouillon”, the panel preference ([3]; sample C (1.2% sodium chloride and 2.5 ppm compound) versus samples A and B) was “preferred over the other two samples” and the off-note observed ([3]; sample C, 1.2% sodium chloride and 2.5 ppm compound) was “slight bitter off-note”.

With `CCCCCCCNC(=O)C(=O)c1ccc(O)c(OC)c1` [Example 5, N-heptyl-2-(4-hydroxy-3-methoxyphenyl)-2-oxoacetamide] the “taste of test ketchup compared with base ketchup” value ([4]; tomato ketchup with 2 ppm compound) was “clearly more umami, more sweet and more full/complex” and the “taste description of solution B” value [1] was “more salty, salivating, lingering”.

For `CC(=O)C(=O)NCCO` [Example 6, N-(2-hydroxyethyl)-2-oxopropanamide], the “taste description of solution B” value ([5]; 0.03% MSG and 10 ppm compound) was “more salty, more umami”.

With `CCCC(CCC)NC(=O)C(O)c1ccc(O)c(OC)c1` (stereo not shown) [Example 7, N-(heptan-4-yl)-2-hydroxy-2-(4-hydroxy-3-methoxyphenyl)acetamide] the “taste of test ketchup compared with base ketchup” value ([4]; tomato ketchup with 20 ppm compound) was “more umami, more bouillon-like and more full/complex”.

In the case of `CCCCCCCNC(=O)C(O)c1ccc(O)c(OC)c1` (stereo not shown) [Example 8, N-heptyl-2-hydroxy-2-(4-hydroxy-3-methoxyphenyl)acetamide], the “taste description of solution B” value ([5]; 0.03% MSG and 1 ppm compound) is reported as “salty, more umami, slightly pungent”.

With `CCCCCCCNC(=O)C(=O)Cc1ccccc1` [Example 9, N-heptyl-2-oxo-3-phenylpropanamide] the “taste description of solution B” value ([5]; 0.03% MSG and 10 ppm compound) was “salty, stronger umami, more bouillon-like”.

With `CCCC(CCC)NC(=O)C(=O)Cc1ccccc1` [Example 10, N-(heptan-4-yl)-2-oxo-3-phenylpropanamide] the “taste description of solution B” value ([5]; 0.03% MSG and 1 ppm compound) was “salty, more umami, more bouillon-like, slightly tingling”.

In the case of `N[C@@H](CCC(=O)O)C(=O)[O-].[Na+]` [MSG, monosodium glutamate, reference compound], the “taste description of potato chips sample B” value ([3]; 1.2% sodium chloride and 0.3% MSG) is reported as “salty and umami”.
